ChEMBL document CHEMBL1201862, “PubChem BioAssay data set” (2004)
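Five concentrations, 48 hours, 96-well plates. GI50 marks 50% less growth.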 The source made the active and inactive calls. Cut-off read from the data, not from the text of the source: active = GI50 up to about 1.1 µM and inactive = higher.

What was measured:
Test in all cases: NCI anticancer screen, dose series, 48 h
HOP-18 = system: HOP-18
ACHN = system: ACHN
DMS-273 = system: DMS-273
SN12C = system: SN12C
RPMI-8226 = system: RPMI-8226
Malme-3M = system: Malme-3M
COLO 205 = system: COLO 205
DLD-1 = system: DLD-1
HOP-62 = system: HOP-62
SK-MEL-5 = system: SK-MEL-5
DMS-114 = system: DMS-114
M19-MEL = system: M19-MEL
HCT-15 = system: HCT-15
SNB-75 = system: SNB-75
OVCAR-8 = system: OVCAR-8
A549 = system: A549
NCI-H460 = system: NCI-H460
TK-10 = system: TK-10
NCI-H23 = system: NCI-H23
A498 = system: A498
SF-539 = system: SF-539
NCI-H226 = system: NCI-H226
U-251 = system: U-251
MOLT-4 = system: MOLT-4
OVCAR-5 = system: OVCAR-5
HL-60 = system: HL-60
SK-OV-3 = system: SK-OV-3
KM12 = system: KM12
HCT-116 = system: HCT-116
SF-268 = system: SF-268
CCRF-CEM = system: CCRF-CEM
IGROV-1 = system: IGROV-1
UACC-257 = system: UACC-257
HCC 2998 = system: HCC 2998
HT-29 = system: HT-29
OVCAR-4 = system: OVCAR-4
M14 = system: M14
UO-31 = system: UO-31
HOP-92 = system: HOP-92
CAKI-1 = system: CAKI-1
SNB-78 = system: SNB-78
EKVX = system: EKVX
LOX IMVI = system: LOX IMVI
SK-MEL-28 = system: SK-MEL-28
K562 = system: K562
SK-MEL-2 = system: SK-MEL-2
SNB-19 = system: SNB-19
NCI-H522 = system: NCI-H522
UACC-62 = system: UACC-62
KM-20L2 = system: KM-20L2
SW-620 = system: SW-620
786-0 = system: 786-0
LXFL 529 = system: LXFL 529
OVCAR-3 = system: OVCAR-3
RXF 631 = system: RXF 631

Measured: GI50

O=C(Nc1cccc(Cl)c1)C(=O)C(C(=O)c1ccc2ccccc2c1)C1OC(=O)c2ccccc21 (stereo not given)
> 10 µM: HCT-15
inactive: HOP-18 12.1 µM | ACHN 25.4 µM | DMS-273 24.7 µM | SN12C 18.6 µM | RPMI-8226 7.67 µM | Malme-3M 13.1 µM | COLO 205 17.1 µM | DLD-1 16.3 µM | HOP-62 16.8 µM | SK-MEL-5 14.7 µM | DMS-114 11.5 µM | M19-MEL 13.8 µM | SNB-75 5.31 µM | OVCAR-8 13.9 µM | A549 30 µM | NCI-H460 8.75 µM | TK-10 29 µM | NCI-H23 7.94 µM | A498 6.01 µM | SF-539 7.8 µM | NCI-H226 2.86 µM | U-251 5.4 µM | MOLT-4 3.99 µM | OVCAR-5 24.8 µM | HL-60 9.16 µM | SK-OV-3 24.6 µM | KM12 22.6 µM | HCT-116 12.6 µM | SF-268 7.29 µM | CCRF-CEM 11.2 µM | IGROV-1 22.4 µM | UACC-257 17 µM | HCC 2998 10.2 µM | HT-29 31.9 µM | OVCAR-4 8.41 µM | M14 16 µM | UO-31 14.1 µM | HOP-92 20.6 µM | CAKI-1 18.5 µM | SNB-78 5.9 µM | EKVX 32.7 µM | LOX IMVI 17.3 µM | SK-MEL-28 9.62 µM | K562 16.1 µM | SK-MEL-2 14.6 µM | SNB-19 5.3 µM | NCI-H522 > 10 µM | UACC-62 15.3 µM | KM-20L2 33.7 µM | SW-620 18.9 µM | 786-0 10.6 µM | LXFL 529 7.48 µM | OVCAR-3 14.7 µM | RXF 631 16.9 µM
